The text below walks through data of ChEMBL document CHEMBL1129616, “Synthesis and evaluation of novel thymidine analogs as antitumor and antiviral agents” (J Med Chem, 1996).

The subject of this experiment is SV-28. As to the kind of experiment: Compound was tested for its effect on (target DNA or RNA) cell plating efficiency at 25 uM after a 24 hr exposure (the SV-28 cell has a plating efficiency between 50 and 60%). In kind it is functional, Cricetulus griseus.

In turn, `CCCCCCCCCCCCCCCC(=O)CC[N+](C)(C)CCOCn1cc(C)c(=O)[nH]c1=O.[I-]` displayed a Cell plating efficiency of 47%.
